Here are results for one compound from publication PMC10747822 (Pharmaceutics, 2023).

For data set [1] the following is noted: 37 °C, 500 µg/mL; cited from earlier work. The protocol: However, these were conducted at a substantially higher concentration of Ac-[D-Leu]LLLRVK-amba of 500 µg/mL compared to the 1 µg/mL investigated here. […] Such lower stability in plasma compared to whole blood was already reported for several peptides.
The conditions of data set [2]: mice; cited from earlier work. On the procedure:
The pharmacokinetics of Ac-[D-Leu]LLLRVK-amba was already determined after intravenous bolus injection. With a half-life of only 9 min, this route of administration only produced a short period of potentially effective concentrations. […] Therefore, we aimed at flattening the pharmacokinetic profile with alternate routes of administr ...

In data set [3] the test system is PACE4. As to conditions: cited from earlier work. From the text: PACE4 is a calcium-dependent serine endoprotease, which has been identified as a potential therapeutic target in prostate cancer. Recently, an efficient inhibitory peptide for PACE4 has been reported, Ac-[D-Leu]LLLRVK-amba, which inhibits PACE4 with low nanomolar affinity. Such high affinity was achieved by optimizing the previously discovered multi-Leu peptide by inserting a […] acetylated D-leucine and replacing the […] arginine with a decarboxylated variant, a 4-amidinobenzylamide (amba) moiety.

A short description of data set [4]: Bench-top stability in fresh mouse whole blood. Type of data set: in vitro ADME. The following applies: minimally diluted, 1 µg/mL (1000 ng/mL), room temperature, sampled at 0, 1 and 2 h, duplicates of 20 µL, UPLC-MS/MS peak area ratio analyte/IS, read-out: calculated half-life in whole blood (converted). On the procedure:
To investigate peptide stability, minimally diluted plasma or blood samples were generated through the addition of 10 µL of a spiking solution (50,000 ng/mL) to 490 µL of the pertinent biological matrix, resulting in a sample concentration of 1000 ng/mL. Samples (withdrawal of duplicates of 20 µL) were measured immediately after preparation and again after 1 and 2 h. Stability was evaluated via the comparison of peak area ratios of analyte and IS.
To determine which biological matrix is best suited for pharmacokinetic experiments in mice, we investigated the bench-top stability of Ac-[D-Leu]LLLRVK-amba in plasma and fresh whole blood at room temperature over a 2 h period (Figure 3). In plasma, anti-coagulated with Li-heparin, Ac-[D-Leu]LLLRVK-amba was very rapidly degraded.

The nature of data set [5]: Metabolite identification / degradation in mouse plasma by HRMS. The following applies: minimally diluted mouse plasma. Type of data set: in vitro ADME. The protocol:
Metabolite identification experiments were performed in minimally diluted mouse plasma at a Ac-[D-Leu]LLLRVK-amba concentration of 20 µg/mL. Minimally diluted plasma samples were incubated at room temperature and analyzed after 0, 0.5, 4, and 16 h. Samples were depleted from proteins via precipitation with a 2-fold excess of ACN + 0.1% FA and diluted with one equivalent of water + 0.1% FA for direct infusion onto the mass spectrometer.
High-resolution mass spectrometric (HRMS) determinations for the investigation of Ac-[D-Leu]LLLRVK-amba metabolism/degradation in plasma were performed on a Xevo G2-XS QTof (Waters, Milford, MA, USA) equipped with a heated Z-spray ESI source. Measurements were performed via direct infusion using the integrated infusion pump with positive ion sensitivity mode.

Data set [6] deals with LNCaP xenograft. As to conditions: cited from earlier work. From the text: A major challenge in the development of peptide therapeutics is their susceptibility to enzymatic hydrolysis in biological systems. A primary mechanism of enzymatic degradation of small peptides in the systemic circulation is peptidase-mediated hydrolysis, especially of terminal amino acids by exopeptidase activity. Ac-[D-Leu]LLLRVK-amba comprises stability-enhancing modifications at both peptide termini: a D-amino acid at the N-terminus and an amba-moiety as a decarboxylated arginine variant at the C-terminus. Both modifications impair substrate properties for exopeptidases and thus inc ... || The pharmacokinetics of Ac-[D-Leu]LLLRVK-amba was already determined after intravenous bolus injection. With a half-life of only 9 min, this route of administration only produced a short period of potentially effective concentrations. […] Therefore, we aimed at flattening the pharmacokinetic profile with alternate routes of administr ...

Where a SMILES comes first, the peptide text is derived from it. [ ]: non-standard residue; d: D form. The star is where a group is joined. NH(4-amidinobenzyl) = N=C(N)c1ccc(CN*)cc1

The half-life is the time in which the quantity being followed falls by half. As for `CC(=O)N[C@H](CC(C)C)C(=O)N[C@@H](CC(C)C)C(=O)N[C@@H](CC(C)C)C(=O)N[C@@H](CC(C)C)C(=O)N[C@@H](CCCNC(=N)N)C(=O)N[C@H](C(=O)N[C@@H](CCCCN)C(=O)NCc1ccc(C(=N)N)cc1)C(C)C` [Ac-[D-Leu]LLLRVK-amba] (Ac-[dL]LLLRVK-{NH(4-amidinobenzyl)}), the “half-life in Na-heparin mouse plasma” value in data set [1] is 18 h. Further, in data set [2], the “half-life after intravenous bolus injection (previous study)” value was 9 min. The “affinity of PACE4 inhibition” value in data set [3] was “low nanomolar”. In addition, the half-life at 1000 ng/mL in data set [4] is 1.39 h. Besides, in data set [5] (20 µg/mL, room temperature over 16 h, HRMS, neither peptide bond hydrolysis nor oxidation products), the “metabolites / degradation products in mouse plasma” value is “no traces of metabolites were observed”. For the same compound, the “stability in mouse plasma at 20 µg/mL” value in data set [5] (room temperature, 0, 0.5, 4 and 16 h, HRMS direct infusion (m/z 50-1200)) was “several hours”. In addition, the “efficacy in mouse xenograft models of prostate cancer” value in data set [6] (daily intravenous and intratumoral injection of 2 mg/kg) is “demonstrated”. In data set [6] (intratumoral vs intravenous administration), the “efficacy in treating prostate cancer in LNCaP xenograft mice, by route” value is listed as “substantially higher when injected intratumorally than when administered intravenously”.
